We go through 1 compound from patent US20040166559A1, “Vectors for gene therapy” (priority 2001, published 2004).

Values after ≈ are worked out from the molar mass of the structure shown. Where two headings read alike, the source gives them in different places.

One assay deals with TK-CEM sub-clones. The experiment in a line: Ganciclovir cytotoxic assay (3H-thymidine incorporation). The assay is classed as cell-based, human. As to conditions: for IC50: Homo sapiens. As for the experimental part: Cells were incubated for 4 days in the presence of increasing concentration of GCV (range from 0.05 to 12.5 μg/mL). Cell proliferation was measured by the incorporation of ^3H— thymidine into the cell DNA. Results are expressed as percentage of incorporated ^3H-thymidine at each GCV concentration respect to the incorporation obtained in the absence of GCV. (♦) non-transduced CEM cells and (▪) SFCMM 3 transduced TK-CEM sub-clones.
Ganciclovir Cytotoxic Assay
A total of 2×10^4 cells/well were seeded into a 96-well plate in 100 μL of medium. Cells were cultured for 4 days with increasing concentrations (from 0.05 to 12.5 μg/mL) of GCV (Cymevene®, Hoffman-La Roche A G, Germany). Afterwards, 1 μCi/well of tritiated thymidine (methyl ^3H-thymidine, TRA.120, 1.0 MBq/mL, Amersham International, England) was added 18 h. before harvesting the cell DNA in a cell harvester (Wallac, Gaitherburg, Md.). The incorporation of ^3H-thymidine into the DNA was measured in a β-scintillation counter (Wallac 1410, aitherburg, Md.). All GCV concentrations were tested in triplicate esults are expressed as percentage of incorporated ^3H-thymidine at each GCV concentration with respect to the incorporation obtained in the absence of GCV.
The expression of the HSV-TK transgene m the TK-CEM sub-clones was determined by the inhibition in cell proliferation when the cells were cultured at increasing concentrations of GCV.
On the technique in general: Uptake of a labelled nucleoside into DNA is a usual measure of proliferation.

The next assay has as its system primary T-cells. The experiment in a line: GCV sensitivity of G1Tk1SvNa transduced primary T-cells following G418 selection. The assay is classed as cell-based, human. As to conditions: n=12. As for the experimental part:
Transduction of donor T-cells with the G1Tk1SvNa retroviral vector was as previously described (Robinet et al (1998) J. Hematother. 7, 205-215). PBMNC were cultured for 3 days with OKT3 (10 ng, Ortho) and rhIL-2 (500 U/mL, Chiron). Infection with retroviral supernatant for 24 hours was followed by G418 (800 μg/mL, Sigma) selection of transduced cells for 7 days. Dead cells were removed and the viable transduced product was cryopreserved for future use. The transduction of CEM cells with the G1Tk1SvNa vector involved identical infection conditions to those described for the SFCMM3 vector, followed by selection in G418 (800 μg/ml) for 7-14 days.
The transduction efficiency of primary T-cells with G1Tk1SvNa prior to G418 selection, as measured by quantitative PCR for Neo^R, was 8.3±1.4% (n=12). The GCV sensitivity of these cells following G418 selection was 87±1.2% (n=12). The relative cell growth of control and transduced cells from one representative transduction/selection experiment is shown in FIG. 16.

Assay [1] deals with T cell lines and primary T cells. The experiment in a line: GCV sensitivity of T cell lines and primary T cells transduced with corrected or non-corrected HSV-Tk vectors. The following applies: inhibition of cell viability. It counts as cell-based, human. An excerpt:
FIG. 18. GCV sensitivity of T cell lines and primary T cells transduced with corrected or non-corrected HSV-Tk vectors. GCV sensitivity of Hut-78 (A) and CEM (B) cell line transduced with corrected SF/Tk/mut (?) or non-corrected vector G1Tk1SVNa (◯) or SF/Tk/wt (Δ) compared to untransduced T-cell lines (▪). The data represents the inhibition of cell viability and are the mean±SD of 8 and 3 different independent experiments, for CEM and Hut-78 cell lines respectively. (C) GCV sensitivity of primary T cells transduced with corrected sc-SFCMM3 (Δ) or non corrected SFCMM3 vectors (?) compared to untransduced T cells (▪).
Primary T cells and the T cell lines, HuT78 (ATCC TIB-161) and CEM (ATCC CRL 2265)] were transduced with G1Tk1SVNa, SF/Tk/wt, SF/Tk/mut, SFCMM3 or scSFCMM3 vectors. HSV-Tk PCR (as described in^7) was performed on transduced target cells. In addition, PCR was performed using primers which selectively amplified the deleted form of the HSV-Tk gene using a 5′ primer, which spans the truncation point [TrTk1: 5′CTCGACCAGG§GCCGTGCT. (§ denoting the junction) and the previously described RTk2 3′ primer^7. Splicing from the transduced cell lines was quantified as described.^7

Assay [2] has as its system circulating transduced T-cells. The experiment in a line: Clinical study: transduced donor T-cells with T cell depleted bone marrow, GCV treatment of GvHD. The assay is classed as in vivo, human. An excerpt:
Escalating amounts of CD3^+ gene-modified cells were infused with T cell depleted bone marrow. Twelve patients with hematological malignancies received 2×10^5 (n=5), 6×10^5 (n=5) or 20×10^5 (n=2) transduced donor CD3^+ cells/kg with bone marrow from an HLA-identical sibling. Acute toxicity was not observed. […] Three patients developed acute GvHD grade≧II while 1 patient developed chronic GvHD (skin and salivary glands). […] In patients receiving GCV, blood samples for detection of gene-modified cells expressing the wild-type or truncated form of the HSV-Tk gene were harvested prior to GCV treatment and a regular two weeks intervals.

The subject of a further assay is transduced donor cells. As to conditions: one patient with chronic GvHD; declined from 11.9%; cited from earlier work.
Where [3] appears, read: patients, GCV treatment for GvHD, quantitative PCR of the NeoR gene.

With `Nc1nc(O)c2ncn(COC(CO)CO)c2n1` [GCV], the IC50 with TK-CEM sub-clones (96 h, TK-CEM clones #6 and #10, 4 days with GCV, read-out: concentration of GCV to achieve the 50% inhibition in cell proliferation) was found to be 0.25 µg/mL (≈ 0.979 µM). The IC50 with TK-CEM sub-clones (read-out: IC50 inhibition in cell proliferation assessed by the incorporation of 3H-thymidine) worked out at 0.1 µg/mL (≈ 0.392 µM). Further, in the assay on TK-CEM sub-clones (TK-CEM clones #1, #2, #4, #5, #7 and #14), the “cell proliferation at increasing concentrations of GCV” value is “parallel to that obtained in the non-transduced cells”. The “complete inhibition in cell proliferation” value in the assay with TK-CEM sub-clones (TK-CEM clones #6 and #10, GCV increased up to 12.5 μg/mL) is recorded as “not completely achieved”. For the same compound, the GCV sensitivity in the assay with primary T-cells is reported as 87±1.2%. Besides, in assay [1], the “GCV sensitivity of cells expressing the mutated HSV-Tk gene compared to populations transduced by wild-type gene” value is “only marginally increased”. In addition, the “change in circulating transduced T-cells” value in assay [2] (patients receiving ganciclovir) is “significant rapid decrease”. Further, in assay [2] (setting [3]), the “reduction of absolute number of circulating transduced T-cells” value is 76-99.5% and the “reduction of percentage of circulating transduced T-cells” value is listed as 85-98%. In addition, the “outcome of chronic GvHD” value in assay [2] (the patient with chronic GvHD (skin and salivary glands)) is recorded as “Long-lasting CR”. Also, in assay [2] (treatment with GCV alone, three patients had acute GvHD grade ≧II), the “outcome of acute GvHD” value is “complete remission (CR) in 2 patients”. Further, in the assay on transduced donor cells, the “proportion of transduced donor cells after administration of GCV” value was 2.8%.
